Test results as given in the supplement of paper PMC10307832.

Experiments:
Test in all cases: relative viability (nuclei count vs DMSO), 5 days (fraction); higher = more cells survive
VX-702 + AZD7762 = compound: NC(=O)c1ccc(N(C(N)=O)c2c(F)cccc2F)nc1-c1ccc(F)cc1F [VX-702] + NC(=O)Nc1cc(-c2cccc(F)c2)sc1C(=O)N[C@H]1CCCNC1 [AZD7762] (partner 0.2 µM)
In short: (§1)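 Relative viability was taken as the ratio of nuclei in treated wells to nuclei in vehicle wells. Lung cancer cell lines in 1536-well plates received compounds by pin tool one day after seeding, either one drug alone or a fixed anchor-drug dose plus five library-drug doses (not always all listed) in √10 steps. Nuclei were counted on 4× images after 5 days of treatment, and values are medians of duplicate plates.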

VX-702 + OSI-027 = compound: NC(=O)c1ccc(N(C(N)=O)c2c(F)cccc2F)nc1-c1ccc(F)cc1F [VX-702] + COc1cccc2cc(-c3nc([C@H]4CC[C@H](C(=O)O)CC4)n4ncnc(N)c34)[nH]c12 [OSI-027] (partner 0.5 µM)
In short: as §1

Dabrafenib + Luminespib = compound: CC(C)(C)c1nc(-c2cccc(NS(=O)(=O)c3c(F)cccc3F)c2F)c(-c2ccnc(N)n2)s1 [Dabrafenib] + CCNC(=O)c1noc(-c2cc(C(C)C)c(O)cc2O)c1-c1ccc(CN2CCOCC2)cc1 [Luminespib] (partner 0.01 µM)
In short: as §1

Dabrafenib + Pictilisib = compound: CC(C)(C)c1nc(-c2cccc(NS(=O)(=O)c3c(F)cccc3F)c2F)c(-c2ccnc(N)n2)s1 [Dabrafenib] + CS(=O)(=O)N1CCN(Cc2cc3nc(-c4cccc5[nH]ncc45)nc(N4CCOCC4)c3s2)CC1 [Pictilisib] (partner 1 µM)
In short: as §1

Cell Line | relative viability (VX-702 + AZD7762; first compound 0.02 µM) | relative viability (VX-702 + AZD7762; first compound 0.2 µM) | relative viability (VX-702 + AZD7762; first compound 0.6325 µM) | relative viability (VX-702 + AZD7762; first compound 2 µM) | relative viability (VX-702 + OSI-027; first compound 0.02 µM) | relative viability (VX-702 + OSI-027; first compound 0.2 µM) | relative viability (VX-702 + OSI-027; first compound 0.6325 µM) | relative viability (VX-702 + OSI-027; first compound 2 µM) | relative viability (Dabrafenib + Luminespib; first compound 0.003 µM) | relative viability (Dabrafenib + Luminespib; first compound 0.009487 µM) | relative viability (Dabrafenib + Luminespib; first compound 0.03 µM) | relative viability (Dabrafenib + Luminespib; first compound 0.09487 µM) | relative viability (Dabrafenib + Luminespib; first compound 0.3 µM) | relative viability (Dabrafenib + Pictilisib; first compound 0.003 µM) | relative viability (Dabrafenib + Pictilisib; first compound 0.009487 µM) | relative viability (Dabrafenib + Pictilisib; first compound 0.03 µM) | relative viability (Dabrafenib + Pictilisib; first compound 0.09487 µM) | relative viability (Dabrafenib + Pictilisib; first compound 0.3 µM)
NCI-H1944 | 0.565 | 0.491 | 0.557 | 0.358 | 0.396 | 0.398 | 0.39 | 0.206 | 0.707 | 0.839 | 0.733 | 0.682 | 0.717 | 0.36 | 0.343 | 0.284 | 0.438 | 0.368
NCI-H2126 | 0.995 | 0.979 | 1.02 | 1.05 | 0.774 | 0.593 | 0.693 | 0.713 | 0.964 | 0.878 | 0.965 | 0.936 | 0.913 | 0.46 | 0.514 | 0.529 | 0.543 | 0.595
NCI-H2170 | 1.05 | 0.834 | 1.08 | 0.941 | 0.746 | 0.693 | 0.698 | 0.762 | 0.759 | 0.792 | 0.73 | 0.568 | 0.604 | 0.251 | 0.394 | 0.293 | 0.311 | 0.323
EPLC-272H | 0.0171 | 0.202 | 0.234 | 0.211 | 0.298 | 0.304 | 0.279 | 0.248 | 0.156 | 0.233 | 0.467 | 0.272 | 0.546 |  | 0.212 | 0.288 | 0.414 | 0.369
NCI-H1651 | 0.474 | 0.429 | 0.468 | 0.455 | 0.733 | 0.685 | 0.786 | 0.652 | 0.65 | 0.87 | 0.789 | 0.831 | 0.608 | 0.534 | 0.58 | 0.559 | 0.554 | 0.596
NCI-H23 | 0.294 | 0.35 | 0.305 | 0.208 | 0.604 | 0.643 | 0.688 | 0.559 |  |  | 0.225 | 0.195 | 0.226 |  | 0.465 | 0.461 | 0.455 | 0.503
NCI-H727 | 0.436 | 0.526 | 0.502 | 0.574 | 0.721 | 0.614 | 0.543 | 0.642 |  | 0.339 | 0.324 |  | 0.414 |  | 0.476 | 0.36 | 0.444 | 0.401
NCI-H1993 | 0.434 | 0.694 | 0.736 | 0.65 | 0.516 | 0.518 | 0.563 | 0.579 | 0.68 | 0.984 | 0.812 | 0.828 | 1.06 | 0.811 | 0.789 | 0.723 | 0.625 | 0.728
NCI-H2405 | 0.822 | 0.766 | 0.784 | 0.826 | 0.677 | 0.641 | 0.544 | 0.668 |  | 0.619 |  | 0.528 | 0.642 |  | 0.305 |  | 0.314 | 0.316
